How the values were obtained:
Type in all cases: in vivo
[1] = test system: barnyardgrass (Echinochloa crus-galli); test: Test G Pre-Emergence Protocol; settings: Echinochloa crus-galli, pre-emergence, 312 h, evaluated after 13 days; for pest or weed control at 15.625 g/ha: 15.625 g ai/ha, read-out: Barnyard grass damage rating (100=total damage to plant; 0=no damage to plant); for pest or weed control at 62.5 g/ha: 62.5 g ai/ha, 100=total damage to plant, 0=no damage to plant, read-out: plant damage rating, Barnyardgrass; for pest or weed control at 250 g/ha: 250 g ai/ha, read-out: Barnyardgrass damage rating (100=total damage to plant; 0=no damage to plant)
In short: (§1)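 One day after sowing, pots are treated with a spray of test compound formulated in acetone/water 50:50 plus 0.5% Tween 20, giving 15.625, 62.5 or 250 g/ha. Evaluation on a 0–100 damage scale follows 13 days of glasshouse growth.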

[2] = test system: corn (Zea mays); test: Test G Pre-Emergence Protocol; settings: Zea mays, pre-emergence, 312 h, evaluated after 13 days; for plant injury at 15.625 g/ha: 15.625 g ai/ha; for plant injury at 15.625 g/ha / plant injury at 250 g/ha: read-out: Corn damage rating (100=total damage to plant; 0=no damage to plant); for plant injury at 62.5 g/ha: 62.5 g ai/ha, 100=total damage to plant, 0=no damage to plant, read-out: plant damage rating, Corn; for plant injury at 250 g/ha: 250 g ai/ha
In short: as §1

[3] = test system: giant foxtail (Setaria faberi); test: Test G Pre-Emergence Protocol; settings: Setaria faberi, pre-emergence, 312 h, evaluated after 13 days; for pest or weed control at 15.625 g/ha: 15.625 g ai/ha; for pest or weed control at 15.625 g/ha / pest or weed control at 250 g/ha: read-out: Foxtail, Giant damage rating (100=total damage to plant; 0=no damage to plant); for pest or weed control at 62.5 g/ha: 62.5 g ai/ha, 100=total damage to plant, 0=no damage to plant, read-out: plant damage rating, Foxtail, Giant; for pest or weed control at 250 g/ha: 250 g ai/ha
In short: as §1

[4] = test system: ivy-leaved morning glory (Ipomoea hederacea); test: Test G Pre-Emergence Protocol; settings: Ipomoea, pre-emergence, 312 h, evaluated after 13 days; for pest or weed control at 15.625 g/ha: 15.625 g ai/ha, read-out: Morning-glory, Ivy-leaved damage rating (100=total damage to plant; 0=no damage to plant); for pest or weed control at 62.5 g/ha: 62.5 g ai/ha, 100=total damage to plant, 0=no damage to plant, read-out: plant damage rating, Morningglory, Ivy-leaved; for pest or weed control at 250 g/ha: 250 g ai/ha, read-out: Morningglory, Ivy-leaved damage rating (100=total damage to plant; 0=no damage to plant)
In short: as §1

[5] = test system: redroot pigweed (Amaranthus retroflexus); test: Test G Pre-Emergence Protocol; settings: Amaranthus retroflexus, pre-emergence, 312 h, evaluated after 13 days; for pest or weed control at 15.625 g/ha: 15.625 g ai/ha; for pest or weed control at 15.625 g/ha / pest or weed control at 250 g/ha: read-out: Pigweed, Redroot damage rating (100=total damage to plant; 0=no damage to plant); for pest or weed control at 62.5 g/ha: 62.5 g ai/ha, 100=total damage to plant, 0=no damage to plant, read-out: plant damage rating, Pigweed, Redroot; for pest or weed control at 250 g/ha: 250 g ai/ha
In short: as §1

[6] = test system: velvetleaf (Abutilon theophrasti); test: Test G Pre-Emergence Protocol; settings: Abutilon theophrasti, pre-emergence, 312 h, evaluated after 13 days; for pest or weed control at 15.625 g/ha: 15.625 g ai/ha; for pest or weed control at 15.625 g/ha / pest or weed control at 250 g/ha: read-out: Velvetleaf damage rating (100=total damage to plant; 0=no damage to plant); for pest or weed control at 62.5 g/ha: 62.5 g ai/ha, 100=total damage to plant, 0=no damage to plant, read-out: plant damage rating, Velvetleaf; for pest or weed control at 250 g/ha: 250 g ai/ha
In short: as §1

[7] = test system: barnyardgrass (Echinochloa crus-galli); test: Test G Post-Emergence Protocol; settings: Echinochloa crus-galli, post-emergence, 312 h; for pest or weed control at 15.625 g/ha: 15.625 g ai/ha, evaluated after 13 days (100=total damage to plant; 0=no damage to plant), read-out: Barnyardgrass damage rating; for pest or weed control at 62.5 g/ha: 62.5 g ai/ha, read-out: Barnyardgrass damage rating (100=total damage to plant; 0=no damage to plant); for pest or weed control at 62.5 g/ha / pest or weed control at 250 g/ha: evaluated after 13 days; for pest or weed control at 250 g/ha: 250 g ai/ha, read-out: damage to plant, Barnyardgrass (100=total damage to plant; 0=no damage to plant)
In short: (§2)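 A glasshouse post-emergence test: 8-day-old plants sprayed at 15.625, 62.5 or 250 g/ha, then grown at 24/16 °C day/night with 14 h light and 65% humidity. Damage rated 13 days later, 0–100.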

[8] = test system: corn (Zea mays); test: Test G Post-Emergence Protocol; settings: Zea mays, post-emergence, 312 h; for plant injury at 15.625 g/ha: 15.625 g ai/ha, evaluated after 13 days (100=total damage to plant; 0=no damage to plant), read-out: Corn damage rating; for plant injury at 62.5 g/ha: 62.5 g ai/ha, read-out: Corn damage rating (100=total damage to plant; 0=no damage to plant); for plant injury at 62.5 g/ha / plant injury at 250 g/ha: evaluated after 13 days; for plant injury at 250 g/ha: 250 g ai/ha, read-out: damage to plant, Corn (100=total damage to plant; 0=no damage to plant)
In short: as §2

[9] = test system: giant foxtail (Setaria faberi); test: Test G Post-Emergence Protocol; settings: Setaria faberi, post-emergence, 312 h; for pest or weed control at 15.625 g/ha: 15.625 g ai/ha, evaluated after 13 days (100=total damage to plant; 0=no damage to plant), read-out: Foxtail, Giant damage rating; for pest or weed control at 62.5 g/ha: 62.5 g ai/ha, read-out: Foxtail, Giant damage rating (100=total damage to plant; 0=no damage to plant); for pest or weed control at 62.5 g/ha / pest or weed control at 250 g/ha: evaluated after 13 days; for pest or weed control at 250 g/ha: 250 g ai/ha, read-out: damage to plant, Foxtail, Giant (100=total damage to plant; 0=no damage to plant)
In short: as §2

[10] = test system: ivy-leaved morning glory (Ipomoea hederacea); test: Test G Post-Emergence Protocol; settings: Ipomoea, post-emergence, 312 h; for pest or weed control at 15.625 g/ha: 15.625 g ai/ha, evaluated after 13 days (100=total damage to plant; 0=no damage to plant), read-out: Morningglory, Ivy-leaved damage rating; for pest or weed control at 62.5 g/ha: 62.5 g ai/ha, read-out: Morningglory, Ivy-leaved damage rating (100=total damage to plant; 0=no damage to plant); for pest or weed control at 62.5 g/ha / pest or weed control at 250 g/ha: evaluated after 13 days; for pest or weed control at 250 g/ha: 250 g ai/ha, read-out: damage to plant, Morningglory, Ivy-leaved (100=total damage to plant; 0=no damage to plant)
In short: as §2

[11] = test system: redroot pigweed (Amaranthus retroflexus); test: Test G Post-Emergence Protocol; settings: Amaranthus retroflexus, post-emergence, 312 h; for pest or weed control at 15.625 g/ha: 15.625 g ai/ha, evaluated after 13 days (100=total damage to plant; 0=no damage to plant), read-out: Pigweed, Redroot damage rating; for pest or weed control at 62.5 g/ha: 62.5 g ai/ha, read-out: Pigweed, Redroot damage rating (100=total damage to plant; 0=no damage to plant); for pest or weed control at 62.5 g/ha / pest or weed control at 250 g/ha: evaluated after 13 days; for pest or weed control at 250 g/ha: 250 g ai/ha, read-out: damage to plant, Pigweed, Redroot (100=total damage to plant; 0=no damage to plant)
In short: as §2

[12] = test system: velvetleaf (Abutilon theophrasti); test: Test G Post-Emergence Protocol; settings: Abutilon theophrasti, post-emergence, 312 h; for pest or weed control at 15.625 g/ha: 15.625 g ai/ha, evaluated after 13 days (100=total damage to plant; 0=no damage to plant), read-out: Velvetleaf damage rating; for pest or weed control at 62.5 g/ha: 62.5 g ai/ha, read-out: Velvetleaf damage rating (100=total damage to plant; 0=no damage to plant); for pest or weed control at 62.5 g/ha / pest or weed control at 250 g/ha: evaluated after 13 days; for pest or weed control at 250 g/ha: 250 g ai/ha, read-out: damage to plant, Velvetleaf (100=total damage to plant; 0=no damage to plant)
In short: as §2

Cc1nccc(NC(=O)[C@@H]2C(=O)N(C)C[C@H]2c2ccc(C(F)(F)F)cc2)c1C (racemic) [Compound 1630]
0%: pest or weed control at 15.625 g/ha [1] | pest or weed control at 62.5 g/ha [1] | pest or weed control at 250 g/ha [1] | plant injury at 15.625 g/ha [2] | plant injury at 62.5 g/ha [2] | plant injury at 250 g/ha [2] | pest or weed control at 15.625 g/ha [3] | pest or weed control at 62.5 g/ha [3] | pest or weed control at 250 g/ha [3] | pest or weed control at 15.625 g/ha [4] | pest or weed control at 62.5 g/ha [4] | pest or weed control at 250 g/ha [4] | pest or weed control at 15.625 g/ha [5] | pest or weed control at 62.5 g/ha [5] | pest or weed control at 250 g/ha [5] | pest or weed control at 15.625 g/ha [6] | pest or weed control at 62.5 g/ha [6] | pest or weed control at 250 g/ha [6] | pest or weed control at 15.625 g/ha [7] | pest or weed control at 62.5 g/ha [7] | pest or weed control at 250 g/ha [7] | plant injury at 15.625 g/ha [8] | plant injury at 62.5 g/ha [8] | plant injury at 250 g/ha [8] | pest or weed control at 15.625 g/ha [9] | pest or weed control at 62.5 g/ha [9] | pest or weed control at 250 g/ha [9] | pest or weed control at 15.625 g/ha [10] | pest or weed control at 62.5 g/ha [10] | pest or weed control at 250 g/ha [10] | pest or weed control at 15.625 g/ha [11] | pest or weed control at 62.5 g/ha [11] | pest or weed control at 250 g/ha [11] | pest or weed control at 15.625 g/ha [12] | pest or weed control at 62.5 g/ha [12] | pest or weed control at 250 g/ha [12]

CN1C[C@@H](c2ccc(C(F)(F)F)cc2)[C@H](C(=O)Nc2cc(C(F)(F)F)no2)C1=O (racemic) [Compound 1511]
0%: pest or weed control at 15.625 g/ha [1] | pest or weed control at 62.5 g/ha [1] | pest or weed control at 250 g/ha [1] | plant injury at 15.625 g/ha [2] | plant injury at 62.5 g/ha [2] | plant injury at 250 g/ha [2] | pest or weed control at 15.625 g/ha [3] | pest or weed control at 62.5 g/ha [3] | pest or weed control at 250 g/ha [3] | pest or weed control at 15.625 g/ha [4] | pest or weed control at 62.5 g/ha [4] | pest or weed control at 250 g/ha [4] | pest or weed control at 15.625 g/ha [5] | pest or weed control at 62.5 g/ha [5] | pest or weed control at 250 g/ha [5] | pest or weed control at 15.625 g/ha [6] | pest or weed control at 62.5 g/ha [6] | pest or weed control at 250 g/ha [6] | pest or weed control at 15.625 g/ha [7] | pest or weed control at 62.5 g/ha [7] | pest or weed control at 250 g/ha [7] | plant injury at 15.625 g/ha [8] | plant injury at 62.5 g/ha [8] | plant injury at 250 g/ha [8] | pest or weed control at 15.625 g/ha [9] | pest or weed control at 62.5 g/ha [9] | pest or weed control at 250 g/ha [9] | pest or weed control at 15.625 g/ha [10] | pest or weed control at 62.5 g/ha [10] | pest or weed control at 250 g/ha [10] | pest or weed control at 15.625 g/ha [11] | pest or weed control at 62.5 g/ha [11] | pest or weed control at 250 g/ha [11] | pest or weed control at 15.625 g/ha [12] | pest or weed control at 62.5 g/ha [12] | pest or weed control at 250 g/ha [12]
